# Measured values published in patent US11980613B2, “Methods for reversing HIV latency using BAF complex modulating compounds” (priority 2018, dated 2024).
# Entries after “also recorded” stand apart in the source; their conditions may differ.
# Test system: latent HIV-1 in CD4+ T cells from c-ART treated HIV-1 infected patients
# Assay: HIV latency reversal from patient samples (cell associated HIV Pol mRNA)
# Type: cell-based, human
# Method: 23. HIV latency reversal from patient samples: All patients were older than 18 years, c-ART treated for at least 3 years, and their viral loads were below 50 copies/ml for more than 12 months with no blips in the past two years. CD4+ T cells from aviremic HIV+ patients were isolated as described previously^55 with minor modifications. Briefly, frozen PBMCs were cultured in RPMI medium over-night to recover. Then next day CD4+ T cells were isolated twice (enriched CD4+ T cells were subjected to a second round of CD4+ T cell enrichment) and left for 6 hrs to recover. Three million cells were treated with DMSO, 10 μM BRD-K80443127, 200 nM Prostratin, 10 μM BRD-K80443127 and 200 nM prostratin, and αCD3/CD28 magnetic beads (at cell:bead ration 1:1) as a positive control in triplicate. After 24 hours cells were lysed in TRIreagent (Sigma), total RNA was isolated with Total RNA Zol-Out (A&A Biotechnology) kit and cDNA was synthetized using random primers and Superscript II Reverse Transcriptase (Life Technologies). Detection of cellular associated pol RNA was performed as described previously (Pol: For […] (SEQ ID NO:15), Rev-[…] (SEQ ID NO: 16))^55. This study was conducted in accordance with the ethical principles of the Declaration of Helsinki. HIV-1 infected patient volunteers were informed and provided signed consent to participate in the study. The study protocol was approved by The Netherlands Medical Ethics Committee (MEC-2012-583). cDNA generated from control and 10 μM BRD-K80443127 treated samples was used to assess expression of BAF target genes biomarker genes-p21 and C-MYC.
structure (smiles),measurement,setting,value
CO[C@H]1CN(C)C(=O)c2cc(NC(=O)OC(C)C)ccc2OC[C@H](C)N(Cc2ccc(-c3ccccn3)cc2)C[C@@H]1C [BRD-K80443127],"cell associated HIV mRNA (Pol), response","Patient 1 (one patient), single agents, 24 hours",responded; also recorded: significant increase
same,potentiation of prostratin activity,all three patients,significant potentiation of prostratin activity
same,cell associated HIV-1 POL,"patient 2 and 3, 24 hours",did not result in a significant increase
